Assay results reported in ChEMBL document CHEMBL1799975 (J Med Chem, 2011).

Columns and labels:
[1] = Lipophilicity, log D of the compound at pH 7.4 by HPLC analysis; type: physicochemical; settings: buffer
[2] = Volume of distribution at steady state in rat at 0.1 mg/kg, iv by LC-MS-MS analysis; type: ADME, organism-based; parameters: dose 0.1 mg/kg, route intravenous; settings: in vivo, read-out: Vdss
[3] = Cmax in rat at 0.1 mg/kg, iv by LC-MS-MS analysis; type: ADME, organism-based; parameters: dose 0.1 mg/kg, route intravenous; settings: in vivo
[4] = AUC in rat at 0.1 mg/kg, po by LC-MS-MS analysis; type: ADME, organism-based; parameters: dose 0.1 mg/kg, route oral; settings: plasma
[5] = Mean residence time in rat at 0.1 mg/kg, po by LC-MS-MS analysis; type: ADME, organism-based; parameters: dose 0.1 mg/kg, route oral; settings: in vivo
[6] = Oral bioavailability in rat at 0.1 mg/kg by LC-MS-MS analysis; type: ADME, organism-based; settings: in vivo
[7] = Drug level in rat plasma at 0.2 mg/kg, iv after 15 mins by LC-MS-MS analysis; type: ADME, organism-based; parameters: dose 0.2 mg/kg, route intravenous
[8] = Drug level in rat plasma at 0.2 mg/kg, iv after 30 mins by LC-MS-MS analysis; type: ADME, organism-based; parameters: dose 0.2 mg/kg, route intravenous
[9] = Drug level in rat brain at 0.2 mg/kg, iv after 15 mins by LC-MS-MS analysis; type: ADME, organism-based; parameters: dose 0.2 mg/kg, route intravenous; settings: read-out: Drug uptake
[10] = Drug level in rat brain at 0.2 mg/kg, iv after 30 mins by LC-MS-MS analysis; type: ADME, organism-based; parameters: dose 0.2 mg/kg, route intravenous; settings: read-out: Drug uptake
[11] = Ratio of drug level in brain to plasma of rat at 0.2 mg/kg, iv after 15 mins by LC-MS-MS analysis; type: ADME, organism-based; parameters: dose 0.2 mg/kg, route intravenous; settings: read-out: BPR
[12] = Ratio of drug level in brain to plasma of rat at 0.2 mg/kg, iv after 30 mins by LC-MS-MS analysis; type: ADME, organism-based; parameters: dose 0.2 mg/kg, route intravenous; settings: read-out: BPR

Row | SMILES | logD [1] | further results
1 | CCC(=O)NCCc1c(C)nn2ccc3c(c12)CCO3 | 1.39 | 
2 | CC(=O)NCCc1c(-c2ccccc2)nc2ccc3c(n12)CCO3 | 1.66 | 
3 | CCC(=O)NCCc1c(C2CC2)nn2ccc3c(c12)CCO3 | 1.89 | 
4 | COc1ccc2[nH]cc(CCNC(C)=O)c2c1 [MELATONIN] | 0.5 | 
5 | CC(=O)NCCn1c(-c2ccccc2)nc2ccc3c(c21)CCO3 | 1.39 | 
6 | CC(=O)NCCc1c(-c2ccccc2)nn2ccc3c(c12)CCO3 | 2.04 | 
7 | CCC(=O)NCCc1c(C(F)(F)F)nn2ccc3c(c12)CCO3 | 1.94 | 
8 | CCC(=O)NCCc1c(CC)nn2ccc3c(c12)CCO3 | 1.71 | 
9 | CCc1nn2ccc3c(c2c1CCNC(C)=O)CCO3 | 1.48 | Vd [2]: 0.664 L/kg; Cmax [3]: 12.4 ng/mL; AUC [4]: 14.4 ng·h/mL; MRT [5]: 57 min; bioavailability [6]: 19.7%; concentration at […] [7]: 83.2 ng/mL; concentration at 0.5 h [8]: 55.9 ng/mL; concentration at […] [9]: 23.7 ng/g; concentration at 0.5 h [10]: 12.4 ng/g; Kp at […] [11]: 0.28; Kp at 0.5 h [12]: 0.22
10 | CC(=O)NCCc1c(C(F)(F)F)nn2ccc3c(c12)CCO3 | 1.64 | 
11 | CC(=O)NCCc1c(C)nn2ccc3c(c12)CCO3 | 1.04 | 
12 | CC(=O)NCCC1=C(c2ccccc2)Cc2ccc3c(c21)CCO3 | 3.49 | 
13 | CC(=O)NCCc1c(C2CC2)nn2ccc3c(c12)CCO3 | 1.61 | 
